From ChEMBL document CHEMBL4334525, “Alopecuroides A-E, Matrine-Type Alkaloid Dimers from the Aerial Parts of Sophora alopecuroides” (J Nat Prod, 2019) come the findings set out here.

Structures are written as SMILES. Activity calls are given as the source filed them. No cut-off for these calls is given here.

Data set [1] concerns RAW264.7. Put plainly: Cytotoxicity against mouse RAW264.7 cells at 50 uM after 24 hrs by MTT assay. The format is cell-based. The following applies: raw264.7, 24 h. A general note: Tetrazolium dyes change colour on reduction, which living cells bring about.
In data set [2] the test system is RAW264.7. Put plainly: Cytotoxicity against mouse RAW264.7 cells at 50 uM after 24 hrs in presence of 1 ug/ml LPS by MTT assay. The format is cell-based. The following applies: raw264.7, 24 h.
Data set [3] relates to RAW264.7. Put plainly: Antiinflammatory activity against LPS-stimulated mouse RAW264.7 cells assessed as inhibition of LPS-induced TNFalpha production by measuring TNFalpha level at 50 uM preincubated for 2 hrs followed by LPS treatment and measured after 16 hrs by ELISA (reference value: 100 +/- 0.45%). The format is functional.
The test system of data set [4] is RAW264.7. Put plainly: Antiinflammatory activity against LPS-stimulated mouse RAW264.7 cells assessed as inhibition of LPS-induced IL-6 production by measuring IL-6 level at 50 uM preincubated for 2 hrs followed by LPS treatment and measured after 16 hrs by ELISA (reference value: 100 +/- 1.33%). It is filed as functional. Set-up: scale not given: the % may be the effect or the level left. A general note: ELISA stands for enzyme-linked immunosorbent assay.

Regarding `N#C[C@H]1N2CCC[C@H]3[C@@H]2[C@H](CN2C(=O)CCC[C@H]32)[C@H]2O[C@]21[C@@H]1CC[C@H]2[C@@H]3[C@@H](CCCN31)CN1C(=O)CCC[C@H]21`, the results for the Activity result in the data set with RAW264.7 [1], in the data set with RAW264.7 [2] and with RAW264.7 [4] were “Non-Toxic”, “Non-Toxic” and 67.85%, respectively. Besides, in the data set on RAW264.7 [3], the “TNFalpha level (% of LPS control)” value was 96.64%.

Take `N#C[C@@H]1N2CCC[C@H]3CN4C(=O)CCC[C@@H]4[C@H]([C@H]32)[C@@H]2O[C@]12[C@H]1CC[C@H]2CN3C(=O)CCC[C@@H]3[C@H]3CCCN1[C@@H]23`: the values for the Activity entry in the data set on RAW264.7 [1], with RAW264.7 [2] and in the data set with RAW264.7 [4] were “Non-Toxic”, “Non-Toxic” and 52.87%, respectively. Besides, the “TNFalpha level (% of LPS control)” value with RAW264.7 [3] is on record as 50.05%.

Turning to `O=C1CCC[C@@H]2[C@H]3CCCN[C@H]3[C@H](CCC[C@H]3C[C@H]4CN5C(=O)CCC[C@@H]5[C@H]5CCCN(C3)[C@@H]45)CN12`, the Activity entry in the data set with RAW264.7 [1] and with RAW264.7 [2] was “Non-Toxic” each time. The “TNFalpha level (% of LPS control)” value in the data set with RAW264.7 [3] turned out to be 69.14%. The outcome with RAW264.7 [4] was inactive.

With `O=C1CCC[C@@H]2[C@H]3CCCN4CCC[C@@H](CN12)[C@@H]34` [MATRINE], the “TNFalpha level (% of LPS control)” value in the data set with RAW264.7 [3] was 72.48%. The Activity with RAW264.7 [4] stood at 65.49%.

As to `O=C1CCC[C@@H]2[C@H]3CCCN4CC([C@@H]5CC[C@H]6[C@@H]7[C@@H](CCCN75)CN5C(=O)CCC[C@H]65)=C[C@@H](CN12)[C@@H]34`, the Activity entry is listed as “Non-Toxic” in the data set on RAW264.7 [1], “Non-Toxic” with RAW264.7 [2] and 60.08% in the data set on RAW264.7 [4]. In addition, the “TNFalpha level (% of LPS control)” value in the data set with RAW264.7 [3] is given as 70.86%.

For the compound `O=C1CCC[C@@H]2[C@H]3CC([C@H]4CC[C@H]5CN6C(=O)CCC[C@@H]6[C@H]6CCCN4[C@@H]56)=CN4CCC[C@@H](CN12)[C@@H]34`, the Activity result is “Non-Toxic” with RAW264.7 [1], “Non-Toxic” with RAW264.7 [2] and 73.9% in the data set on RAW264.7 [4]. In the data set with RAW264.7 [3], the “TNFalpha level (% of LPS control)” value is 49.59%.
